Assay results from US12077485B2, “Lipid nanoparticle compositions for delivering circular polynucleotides” (Orna Therapeutics, Inc., priority 2021, dated 2024).

Columns and labels:
splenic T cells = assay: mOX40L expression in splenic T cells, flow cytometry; type: in vivo, C57BL/6 female mice; conditions: 1 mg/kg intravenously, 24 hours, IL:P 5.7
Method: The ionizable lipid: helper lipid: cholesterol: PEG-lipid molar ratio of these LNPs was 50:10:38.5:1.5. C57BL/6 female mice (6-8 weeks, n=4) were dosed at 1 mg/kg intravenously. At 24 hours, the spleen from the mice were collected for flow cytometry analysis, tested for weight loss and measured for serum alanine aminotransferase (ALT) after blood collection. mOX40L expression was measured in splenic T cells.

[1] = system: splenic immune cells (T cells, myeloid cells, B cells, NK cells); assay: mOX40L expression in splenic immune cells, flow cytometry; type: in vivo, C57BL/6 female mice; conditions: 1 mg/kg intravenously, 24 hours, IL:P 5.7, 50:10:38.5:1.5; compared to Lipid 15 of Table 10f
Method: The ionizable lipid: helper lipid: cholesterol: PEG-lipid molar ratio of these LNPs was 50:10:38.5:1.5. Dialysis of the LNPs were performed using PBS. C57BL/6 female mice (6-8 weeks, n=4) were dosed at either LNP comprising Lipid 1 of Table 10e or the Lipid 15 of Table 10f at 1 mg/kg intravenously. At 24 hours, the spleen from the mice were collected for flow cytometry analysis. mOX40L transfection of Lipid 1 of Table 10e and Lipid 15 of Table 10f were compared in T cells, myeloid cells, B cells, and NK cells.

In the case of `CCCCCCCCCCCCC(O)CN(CCCO)CCCCCCCC(=O)OC(CCCCCCCC)CCCCCCCC` (centres unmarked) [Lipid 1 of Table 10e, heptadecan-9-yl 8-((3-hydroxypropyl)(2-hydroxytetradecyl)amino)octanoate], the “expression of mOX40L in splenic T cells” value (splenic T cells) is reported as “resulted in expression of mOX40L in splenic T cells” and the “mOX40L transfection in splenic immune cells” value [1] is reported as “comparable or higher levels of mOX40L transfection”.
